Assay results as given in patent publication US20230085307A1, “PYRIDAZINONE COMPOUND AND HERBICIDE” (NISSAN CHEMICAL CORPORATION, priority 2019, published 2023).

Columns and labels:
late watergrass = assay: Test Example 1: herbicidal activity, application before weed generation under submerged conditions (Table 16, symbol A); type: in vivo, late watergrass (Echinochloa oryzicola); conditions: amount of applied herbicide 320 g/ha
Outline: (§1)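 Submerged Wagner pots (alluvial soil, 4 cm water) sown with weed seeds and planted with 2.5-leaf rice seedlings; emulsifiable concentrate diluted in water applied to water surface on sowing day. Held in greenhouse at 25-30 °C; injury scored 0-5 by herbicidal rate after three weeks.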

Japanese bulrush = assay: Test Example 1: herbicidal activity, application before weed generation under submerged conditions (Table 16, symbol B); type: in vivo, Japanese bulrush (Schoenoplectus juncoides); conditions: amount of applied herbicide 320 g/ha
Outline: as §1

oval-leafed pondweed = assay: Test Example 1: herbicidal activity, application before weed generation under submerged conditions (Table 16, symbol C); type: in vivo, oval-leafed pondweed (Monochoria vaginalis); conditions: amount of applied herbicide 320 g/ha
Outline: as §1

barnyard grass [1] = assay: Test Example 3: herbicidal effect by foliage application, Wagner pot (Table 18, symbol H); type: in vivo, barnyard grass (Echinochloa crus-galli); conditions: 320 g/ha
Outline: (§2)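 Plants were sown in alluvial soil held under 0.1–0.5 cm standing water and grown 14 days in a greenhouse at 25–30 °C. An emulsifiable formulation, water-diluted to the set dose, was then sprayed onto the foliage, and effects were scored three weeks later using previously defined criteria.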

Chinese sprangletop = assay: Test Example 3: herbicidal effect by foliage application, Wagner pot (Table 18, symbol D); type: in vivo, chinese sprangletop (Leptochloa chinensis); conditions: 320 g/ha
Outline: as §2

rice flat sedge = assay: Test Example 3: herbicidal effect by foliage application, Wagner pot (Table 18, symbol E); type: in vivo, rice flat sedge (Cyperus iria); conditions: 320 g/ha
Outline: as §2

southern crabgrass [2] = assay: Test Example 4: herbicidal effect by soil treatment (Table 19, symbol F); type: in vivo, southern crabgrass (Digitaria ciliaris); conditions: amount of applied herbicide 320 g/ha
Outline: (§3)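 Applied as a water-diluted emulsion, the compound was sprayed onto soil covering newly sown seeds. Evaluation came three weeks after application, in a greenhouse held at 25° C. to 30° C.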

green foxtail [3] = assay: Test Example 4: herbicidal effect by soil treatment (Table 19, symbol G); type: in vivo, green foxtail (Setaria viridis); conditions: amount of applied herbicide 320 g/ha
Outline: as §3

barnyard grass [4] = assay: Test Example 4: herbicidal effect by soil treatment (Table 19, symbol H); type: in vivo, barnyard grass (Echinochloa crus-galli); conditions: amount of applied herbicide 320 g/ha
Outline: as §3

wild oat [5] = assay: Test Example 4: herbicidal effect by soil treatment (Table 19, symbol I); type: in vivo, wild oat (Avena fatua); conditions: amount of applied herbicide 320 g/ha
Outline: as §3

blackgrass [6] = assay: Test Example 4: herbicidal effect by soil treatment (Table 19, symbol J); type: in vivo, blackgrass (Alopecurus myosuroides); conditions: amount of applied herbicide 320 g/ha
Outline: as §3

Italian ryegrass [7] = assay: Test Example 4: herbicidal effect by soil treatment (Table 19, symbol K); type: in vivo, Italian ryegrass (Lolium multiflorum); conditions: amount of applied herbicide 320 g/ha
Outline: as §3

windgrass [8] = assay: Test Example 4: herbicidal effect by soil treatment (Table 19, symbol L); type: in vivo, windgrass (Apera spica-venti); conditions: amount of applied herbicide 320 g/ha
Outline: as §3

velvetleaf [9] = assay: Test Example 4: herbicidal effect by soil treatment (Table 19, symbol M); type: in vivo, velvetleaf (Abutilon theophrasti); conditions: amount of applied herbicide 320 g/ha
Outline: as §3

redroot pigweed [10] = assay: Test Example 4: herbicidal effect by soil treatment (Table 19, symbol N); type: in vivo, redroot pigweed (Amaranthus retroflexus); conditions: amount of applied herbicide 320 g/ha
Outline: as §3

lambsquarters [11] = assay: Test Example 4: herbicidal effect by soil treatment (Table 19, symbol O); type: in vivo, lambsquarters (Chenopodium album); conditions: amount of applied herbicide 320 g/ha
Outline: as §3

chickweed [12] = assay: Test Example 4: herbicidal effect by soil treatment (Table 19, symbol P); type: in vivo, common chickweed (Stellaria media); conditions: amount of applied herbicide 320 g/ha
Outline: as §3

persian speedwell [13] = assay: Test Example 4: herbicidal effect by soil treatment (Table 19, symbol R); type: in vivo, Persian speedwell (Veronica persica); conditions: amount of applied herbicide 320 g/ha
Outline: as §3

southern crabgrass [14] = assay: Test Example 5: herbicidal effect by foliage application, plastic box (Table 20, symbol F); type: in vivo, southern crabgrass (Digitaria ciliaris); conditions: amount of applied herbicide 320 g/ha; foliage application after 14-day growth; evaluated three weeks after application
Outline: (§4)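 Sow seeds spot-wise in sterilized diluvial soil; cover with ~1.5 cm soil. Grow 14 days in greenhouse, 25° C. to 30° C. Spray foliage with emulsion diluted to predetermined amount. Rate effect after 3 weeks.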

green foxtail [15] = assay: Test Example 5: herbicidal effect by foliage application, plastic box (Table 20, symbol G); type: in vivo, green foxtail (Setaria viridis); conditions: amount of applied herbicide 320 g/ha; foliage application after 14-day growth; evaluated three weeks after application
Outline: as §4

barnyard grass [16] = assay: Test Example 5: herbicidal effect by foliage application, plastic box (Table 20, symbol H); type: in vivo, barnyard grass (Echinochloa crus-galli); conditions: amount of applied herbicide 320 g/ha; foliage application after 14-day growth; evaluated three weeks after application
Outline: as §4

wild oat [17] = assay: Test Example 5: herbicidal effect by foliage application, plastic box (Table 20, symbol I); type: in vivo, wild oat (Avena fatua); conditions: amount of applied herbicide 320 g/ha; foliage application after 14-day growth; evaluated three weeks after application
Outline: as §4

blackgrass [18] = assay: Test Example 5: herbicidal effect by foliage application, plastic box (Table 20, symbol J); type: in vivo, blackgrass (Alopecurus myosuroides); conditions: amount of applied herbicide 320 g/ha; foliage application after 14-day growth; evaluated three weeks after application
Outline: as §4

Italian ryegrass [19] = assay: Test Example 5: herbicidal effect by foliage application, plastic box (Table 20, symbol K); type: in vivo, Italian ryegrass (Lolium multiflorum); conditions: amount of applied herbicide 320 g/ha; foliage application after 14-day growth; evaluated three weeks after application
Outline: as §4

windgrass [20] = assay: Test Example 5: herbicidal effect by foliage application, plastic box (Table 20, symbol L); type: in vivo, windgrass (Apera spica-venti); conditions: amount of applied herbicide 320 g/ha; foliage application after 14-day growth; evaluated three weeks after application
Outline: as §4

velvetleaf [21] = assay: Test Example 5: herbicidal effect by foliage application, plastic box (Table 20, symbol M); type: in vivo, velvetleaf (Abutilon theophrasti); conditions: amount of applied herbicide 320 g/ha; foliage application after 14-day growth; evaluated three weeks after application
Outline: as §4

redroot pigweed [22] = assay: Test Example 5: herbicidal effect by foliage application, plastic box (Table 20, symbol N); type: in vivo, redroot pigweed (Amaranthus retroflexus); conditions: amount of applied herbicide 320 g/ha; foliage application after 14-day growth; evaluated three weeks after application
Outline: as §4

lambsquarters [23] = assay: Test Example 5: herbicidal effect by foliage application, plastic box (Table 20, symbol O); type: in vivo, lambsquarters (Chenopodium album); conditions: amount of applied herbicide 320 g/ha; foliage application after 14-day growth; evaluated three weeks after application
Outline: as §4

chickweed [24] = assay: Test Example 5: herbicidal effect by foliage application, plastic box (Table 20, symbol P); type: in vivo, common chickweed (Stellaria media); conditions: amount of applied herbicide 320 g/ha; foliage application after 14-day growth; evaluated three weeks after application
Outline: as §4

false cleavers = assay: Test Example 5: herbicidal effect by foliage application, plastic box (Table 20, symbol Q); type: in vivo, false cleavers (Galium spurium); conditions: amount of applied herbicide 320 g/ha; foliage application after 14-day growth; evaluated three weeks after application
Outline: as §4

persian speedwell [25] = assay: Test Example 5: herbicidal effect by foliage application, plastic box (Table 20, symbol R); type: in vivo, Persian speedwell (Veronica persica); conditions: amount of applied herbicide 320 g/ha; foliage application after 14-day growth; evaluated three weeks after application
Outline: as §4

Q: For `COc1ccccc1-c1sc2cc(F)c(F)cc2c1-c1c(O)c(C)nn(C)c1=O` [5-011], which “Herbicidal effect, A: late watergrass” value (late watergrass) is on record?
A: Its value is 2 (Herbicidal rate of 20% or more and less than 40%).

Q: And the “Herbicidal effect, B: Japanese bulrush” value (Japanese bulrush)?
A: The value was 2 (Herbicidal rate of 20% or more and less than 40%).

Q: And the “Herbicidal effect, C: oval-leafed pondweed” value (oval-leafed pondweed)?
A: Its value is 0 (Herbicidal rate of 5% or less (almost no effect)).

Q: And the “herbicidal effect on barnyard grass (H)” value (barnyard grass [1])?
A: Its value is 5 (Herbicidal rate of 90% or more (almost completely withered)).

Q: What about the “herbicidal effect on Chinese sprangletop (D)” value (Chinese sprangletop) of the same molecule?
A: Its value is 3 (Herbicidal rate of 40% or more and less than 70%).

Q: And the “herbicidal effect on rice flat sedge (E)” value (rice flat sedge)?
A: Its value is 5 (Herbicidal rate of 90% or more (almost completely withered)).

Q: What about the “F: southern crabgrass, herbicidal effect grade” value (southern crabgrass [2]) of the same molecule?
A: The value was 3 (Herbicidal rate of 40% or more and less than 70%).

Q: And the “G: green foxtail, herbicidal effect grade” value (green foxtail [3])?
A: The value was 4 (Herbicidal rate of 70% or more and less than 90%).

Q: What about the “H: barnyard grass, herbicidal effect grade” value (barnyard grass [4]) of the same molecule?
A: The value was 4 (Herbicidal rate of 70% or more and less than 90%).

Q: And the “I: wild oat, herbicidal effect grade” value (wild oat [5])?
A: The value was 0 (Herbicidal rate of 5% or less (almost no effect)).

Q: And the “J: blackgrass, herbicidal effect grade” value (blackgrass [6])?
A: The value was 3 (Herbicidal rate of 40% or more and less than 70%).

Q: And the “K: Italian ryegrass, herbicidal effect grade” value (Italian ryegrass [7])?
A: Its value is 3 (Herbicidal rate of 40% or more and less than 70%).

Q: And the “L: windgrass, herbicidal effect grade” value (windgrass [8])?
A: Its value is 4 (Herbicidal rate of 70% or more and less than 90%).

Q: What about the “M: velvetleaf, herbicidal effect grade” value (velvetleaf [9]) of the same molecule?
A: Its value is 5 (Herbicidal rate of 90% or more (almost completely withered)).

Q: And the “N: redroot pigweed, herbicidal effect grade” value (redroot pigweed [10])?
A: The value was 5 (Herbicidal rate of 90% or more (almost completely withered)).

Q: And the “O: lambsquarters, herbicidal effect grade” value (lambsquarters [11])?
A: The value was 5 (Herbicidal rate of 90% or more (almost completely withered)).

Q: What about the “P: chickweed, herbicidal effect grade” value (chickweed [12]) of the same molecule?
A: The value was 3 (Herbicidal rate of 40% or more and less than 70%).

Q: And the “R: persian speedwell, herbicidal effect grade” value (persian speedwell [13])?
A: The value was 5 (Herbicidal rate of 90% or more (almost completely withered)).

Q: And the “Herbicidal effect by foliage application, F: southern crabgrass” value (southern crabgrass [14])?
A: Its value is 2 (Herbicidal rate of 20% or more and less than 40%).

Q: What about the “Herbicidal effect by foliage application, G: green foxtail” value (green foxtail [15]) of the same molecule?
A: The value was 5 (Herbicidal rate of 90% or more (almost completely withered)).

Q: What about the “Herbicidal effect by foliage application, H: barnyard grass” value (barnyard grass [16]) of the same molecule?
A: The value was 4 (Herbicidal rate of 70% or more and less than 90%).

Q: And the “Herbicidal effect by foliage application, I: wild oat” value (wild oat [17])?
A: The value was 3 (Herbicidal rate of 40% or more and less than 70%).

Q: What about the “Herbicidal effect by foliage application, J: blackgrass” value (blackgrass [18]) of the same molecule?
A: The value was 3 (Herbicidal rate of 40% or more and less than 70%).

Q: And the “Herbicidal effect by foliage application, K: Italian ryegrass” value (Italian ryegrass [19])?
A: Its value is 3 (Herbicidal rate of 40% or more and less than 70%).

Q: And the “Herbicidal effect by foliage application, L: windgrass” value (windgrass [20])?
A: The value was 4 (Herbicidal rate of 70% or more and less than 90%).

Q: What about the “Herbicidal effect by foliage application, M: velvetleaf” value (velvetleaf [21]) of the same molecule?
A: The value was 5 (Herbicidal rate of 90% or more (almost completely withered)).

Q: And the “Herbicidal effect by foliage application, N: redroot pigweed” value (redroot pigweed [22])?
A: The value was 5 (Herbicidal rate of 90% or more (almost completely withered)).

Q: What about the “Herbicidal effect by foliage application, O: lambsquarters” value (lambsquarters [23]) of the same molecule?
A: The value was 4 (Herbicidal rate of 70% or more and less than 90%).

Q: And the “Herbicidal effect by foliage application, P: chickweed” value (chickweed [24])?
A: Its value is 5 (Herbicidal rate of 90% or more (almost completely withered)).

Q: What about the “Herbicidal effect by foliage application, Q: false cleavers” value (false cleavers) of the same molecule?
A: The value was 5 (Herbicidal rate of 90% or more (almost completely withered)).

Q: What about the “Herbicidal effect by foliage application, R: persian speedwell” value (persian speedwell [25]) of the same molecule?
A: Its value is 5 (Herbicidal rate of 90% or more (almost completely withered)).
